Laboratory results: ChEMBL document CHEMBL4138123, “Design, synthesis and biological evaluation of novel pyrazolochalcones as potential modulators of PI3K/Akt/mTOR pathway and inducers of apoptosis in breast cancer cells” (Eur J Med Chem, 2017)

Experiments:
SNB-19 = test: Cytotoxicity against human SNB19 cells assessed as growth inhibition after 48 hrs by sulforhodamine B assay; format: functional; conditions: SNB-19, 48 h
U-251 = test: Cytotoxicity against human U251 cells assessed as growth inhibition after 48 hrs by sulforhodamine B assay; format: functional; conditions: U-251, 48 h
A498 [1] = test: Cytotoxicity against human A498 cells assessed as growth inhibition after 48 hrs by sulforhodamine B assay; format: functional; conditions: A498, 48 h
UO-31 = test: Cytotoxicity against human UO31 cells assessed as growth inhibition after 48 hrs by sulforhodamine B assay; format: functional; conditions: UO-31, 48 h
MCF7 = test: Cytotoxicity against human MCF7 cells assessed as growth inhibition after 48 hrs by MTT assay; format: functional, cell-based; conditions: MCF7, 48 h
NCI/ADR-RES [2] = test: Cytotoxicity against human NCI/ADR-RES cells assessed as cell growth at 0.01 uM after 48 hrs by sulforhodamine B assay relative to control; format: functional; conditions: read-out: Activity
KM12 [3] = test: Cytotoxicity against human KM12 cells assessed as cell growth at 0.01 uM after 48 hrs by sulforhodamine B assay relative to control; format: functional; conditions: KM12, 48 h, read-out: Activity
NCI-H522 = test: Cytotoxicity against human NCI-H522 cells assessed as cell growth at 0.01 uM after 48 hrs by sulforhodamine B assay relative to control; format: functional; conditions: NCI-H522, 48 h, read-out: Activity
NCI-H460 = test: Cytotoxicity against human NCI-H460 cells assessed as cell growth at 0.01 uM after 48 hrs by sulforhodamine B assay relative to control; format: functional; conditions: NCI-H460, 48 h, read-out: Activity
NCI-H23 [4] = test: Cytotoxicity against human NCI-H23 cells assessed as cell growth at 0.01 uM after 48 hrs by sulforhodamine B assay relative to control; format: functional; conditions: NCI-H23, 48 h, read-out: Activity
NCI-H226 = test: Cytotoxicity against human NCI-H226 cells assessed as cell growth at 0.01 uM after 48 hrs by sulforhodamine B assay relative to control; format: functional; conditions: NCI-H226, 48 h, read-out: Activity
HOP-62 [5] = test: Cytotoxicity against human HOP62 cells assessed as cell growth at 0.01 uM after 48 hrs by sulforhodamine B assay relative to control; format: functional; conditions: HOP-62, 48 h, read-out: Activity
A549 [6] = test: Cytotoxicity against human A549/ATCC cells assessed as cell growth at 0.01 uM after 48 hrs by sulforhodamine B assay relative to control; format: functional; conditions: A549, 48 h, read-out: Activity
SR [7] = test: Cytotoxicity against human SR cells assessed as cell growth at 0.01 uM after 48 hrs by sulforhodamine B assay relative to control; format: functional; conditions: read-out: Activity
TK-10 = test: Cytotoxicity against human TK10 cells assessed as cell growth at 0.01 uM after 48 hrs by sulforhodamine B assay relative to control; format: functional; conditions: TK-10, 48 h, read-out: Activity
Hs-578T = test: Cytotoxicity against human Hs 578T cells assessed as cell growth at 0.01 uM after 48 hrs by sulforhodamine B assay relative to control; format: functional; conditions: read-out: Activity
CCRF-CEM [8] = test: Cytotoxicity against human CCRF-CEM cells assessed as cell growth at 0.1 uM after 48 hrs by sulforhodamine B assay relative to control; format: functional; conditions: read-out: Activity
NCI-H23 [9] = test: Cytotoxicity against human NCI-H23 cells assessed as cell growth at 0.1 uM after 48 hrs by sulforhodamine B assay relative to control; format: functional; conditions: NCI-H23, 48 h, read-out: Activity
KM12 [10] = test: Cytotoxicity against human KM12 cells assessed as cell growth at 0.1 uM after 48 hrs by sulforhodamine B assay relative to control; format: functional; conditions: KM12, 48 h, read-out: Activity
SF-268 [11] = test: Cytotoxicity against human SF268 cells assessed as cell growth at 0.1 uM after 48 hrs by sulforhodamine B assay relative to control; format: functional; conditions: SF-268, 48 h, read-out: Activity
Malme-3M = test: Cytotoxicity against human MALME-3M cells assessed as cell growth at 0.1 uM after 48 hrs by sulforhodamine B assay relative to control; format: functional; conditions: read-out: Activity
MDA-MB-435 = test: Cytotoxicity against human MDA-MB-435 cells assessed as cell growth at 0.1 uM after 48 hrs by sulforhodamine B assay relative to control; format: functional; conditions: MDA-MB-435, 48 h, read-out: Activity
UACC-62 [12] = test: Cytotoxicity against human UACC62 cells assessed as cell growth at 0.1 uM after 48 hrs by sulforhodamine B assay relative to control; format: functional; conditions: UACC-62, 48 h, read-out: Activity
NCI/ADR-RES [13] = test: Cytotoxicity against human NCI/ADR-RES cells assessed as cell growth at 0.1 uM after 48 hrs by sulforhodamine B assay relative to control; format: functional; conditions: read-out: Activity
MDA-MB-231 [14] = test: Cytotoxicity against human MDA-MB-231 cells assessed as cell growth at 0.1 uM after 48 hrs by sulforhodamine B assay relative to control; format: functional; conditions: MDA-MB-231, 48 h, read-out: Activity
K562 = test: Cytotoxicity against human K562 cells assessed as cell growth at 1 uM after 48 hrs by sulforhodamine B assay relative to control; format: functional; conditions: K562, 48 h, read-out: Activity
A549 [15] = test: Cytotoxicity against human A549/ATCC cells assessed as cell growth at 1 uM after 48 hrs by sulforhodamine B assay relative to control; format: functional; conditions: A549, 48 h, read-out: Activity
UACC-62 [16] = test: Cytotoxicity against human UACC62 cells assessed as cell growth at 1 uM after 48 hrs by sulforhodamine B assay relative to control; format: functional; conditions: UACC-62, 48 h, read-out: Activity
PC-3 = test: Cytotoxicity against human PC3 cells assessed as cell growth at 1 uM after 48 hrs by sulforhodamine B assay relative to control; format: functional; conditions: PC-3, 48 h, read-out: Activity
DU-145 = test: Cytotoxicity against human DU145 cells assessed as cell growth at 1 uM after 48 hrs by sulforhodamine B assay relative to control; format: functional; conditions: DU-145, 48 h, read-out: Activity
CCRF-CEM [17] = test: Cytotoxicity against human CCRF-CEM cells assessed as cell growth at 10 uM after 48 hrs by sulforhodamine B assay relative to control; format: functional; conditions: read-out: Activity
SR [18] = test: Cytotoxicity against human SR cells assessed as cell growth at 10 uM after 48 hrs by sulforhodamine B assay relative to control; format: functional; conditions: read-out: Activity
SF-268 [19] = test: Cytotoxicity against human SF268 cells assessed as cell growth at 10 uM after 48 hrs by sulforhodamine B assay relative to control; format: functional; conditions: SF-268, 48 h, read-out: Activity
MDA-MB-231 [20] = test: Cytotoxicity against human MDA-MB-231 cells assessed as cell growth at 10 uM after 48 hrs by sulforhodamine B assay relative to control; format: functional; conditions: MDA-MB-231, 48 h, read-out: Activity
HOP-62 [21] = test: Cytotoxicity against human HOP62 cells assessed as cell growth at 100 uM after 48 hrs by sulforhodamine B assay relative to control; format: functional; conditions: HOP-62, 48 h, read-out: Activity
KM12 [22] = test: Cytotoxicity against human KM12 cells assessed as cell growth at 100 uM after 48 hrs by sulforhodamine B assay relative to control; format: functional; conditions: KM12, 48 h, read-out: Activity
A498 [23] = test: Cytotoxicity against human A498 cells assessed as cell growth at 100 uM after 48 hrs by sulforhodamine B assay relative to control; format: functional; conditions: A498, 48 h, read-out: Activity

## COc1ccc(-c2cc(/C=C/C(=O)c3cc(OC)c(OC)c(OC)c3)[nH]n2)cc1OC
SNB-19
  GI50: 1.8 µM
  TGI: 5.32 µM
SNB-19; read-out: LC50 (the source's name)
  CC50: 27.1 µM
U-251
  GI50: 1.24 µM
  LC50: 5.13 µM
  TGI: 2.53 µM
A498 [1]
  GI50: 1.46 µM
  LC50: 22.3 µM
  TGI: 4.99 µM
UO-31
  GI50: 1.27 µM
  LC50: 5.29 µM
  TGI: 2.59 µM
MCF7
  IC50: 1.1 µM
NCI/ADR-RES [2]
  growth at 0.01 µM: 97%
KM12 [3]
  growth at 0.01 µM: 99%
NCI-H522
  growth at 0.01 µM: 89%
NCI-H460
  growth at 0.01 µM: 100%
NCI-H23 [4]
  growth at 0.01 µM: 94%
NCI-H226
  growth at 0.01 µM: 93%
HOP-62 [5]
  growth at 0.01 µM: 92%
A549 [6]
  growth at 0.01 µM: 101%
SR [7]
  growth at 0.01 µM: 93%
TK-10
  growth at 0.01 µM: 93%
Hs-578T
  growth at 0.01 µM: 95%
CCRF-CEM [8]
  growth at 0.1 µM: 91%
NCI-H23 [9]
  growth at 0.1 µM: 95%
KM12 [10]
  growth at 0.1 µM: 92%
SF-268 [11]
  growth at 0.1 µM: 93%
Malme-3M
  growth at 0.1 µM: 89%
MDA-MB-435
  growth at 0.1 µM: 91%
UACC-62 [12]
  growth at 0.1 µM: 98%
NCI/ADR-RES [13]
  growth at 0.1 µM: 97%
MDA-MB-231 [14]
  growth at 0.1 µM: 93%
K562
  growth at 1 µM: 43%
A549 [15]
  growth at 1 µM: 82%
UACC-62 [16]
  growth at 1 µM: 88%
PC-3
  growth at 1 µM: 71%
DU-145
  growth at 1 µM: 87%
CCRF-CEM [17]
  growth at 10 µM: -15%
SR [18]
  growth at 10 µM: -10%
SF-268 [19]
  growth at 10 µM: -56%
MDA-MB-231 [20]
  growth at 10 µM: 11%
HOP-62 [21]
  growth at 100 µM: -84%
KM12 [22]
  growth at 100 µM: -64%
A498 [23]
  growth at 100 µM: -91%
